In patent publication US20250213571A1, “TYK2 INHIBITORS AND USES THEREOF” (Alumis Inc., priority 2022, published 2025):

Assays:
[1] = biological target: human TYK2 (JH2domain-pseudokinase) (Homo sapiens (Human), UniProt P29597); test: TYK2 JH2 domain binding assay (KINOMEscan)
Summary of the method: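 KINOMEscan competition: DNA-tagged NFkB-fusion kinase domains from HEK293 extracts (<0.1 nM) bound immobilized ligand with compound for 1 hour at room temperature, 0.9% DMSO. Bead-retained kinase was quantified by qPCR. Kd came from 11-point 3-fold series from 30,000 nM top, in duplicate, Hill fit with slope −1.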

TYK2 JH1 = TYK2 JH1 (Homo sapiens (Human), UniProt P29597); test: TYK2 JH1 binding (Kd, Table 2); details: JH1 domain
JAK3 JH1 = JAK3 JH1 (Homo sapiens (Human), UniProt P52333); test: JAK3 JH1 binding (Kd, Table 2); details: JH1 domain
JAK2 JH2 = JAK2 JH2 (Homo sapiens (Human), UniProt O60674); test: JAK2 JH2 binding (Kd, Table 2); details: JH2 domain
JAK2 JH1 = JAK2 JH1 (Homo sapiens (Human), UniProt O60674); test: JAK2 JH1 binding (Kd, Table 2); details: JH1 domain
JAK1 JH2 = JAK1 JH2 (Homo sapiens (Human), UniProt P23458); test: JAK1 JH2 binding (Kd, Table 2); details: JH2 domain
JAK1 JH1 = JAK1 JH1 (Homo sapiens (Human), UniProt P23458); test: JAK1 JH1 binding (Kd, Table 2); details: JH1 domain
IFNa, PBMCs, p-STAT3 = test: IFNa induced p-STAT3 in PBMCs; type: cell-based; details: Homo sapiens, PBMC, IFNa stimulated PBMCs
[2] = tested on: INFα Induced pSTAT5 in Human PBMC; test: INFα induced pSTAT5 in human PBMC; type: cell-based; details: 0.25 h, human PBMCs, INFα 5000 units/ml 15 minutes, p-STAT5, read-out: IFNa, PBMCs, p-STAT5 (IC50)
Description: Fresh Human PBMCs were resuspended in RPMI 1640 medium with 10% FBS. Cells were seeded in a round bottom 96-well plate at the concentration of 200,000 cells/well. A 10-point dilution series of test compound (top dose 10 uM, 1:5 dilution) was added to the well using the liquid dispenser (Tecan D300e) and incubated for 1 hour at 37 C. Then human INFα recombinant protein (R&D Systems) was added to the well at the final concentration of 5000 units/ml and incubated for 15 minutes at 37 C. Cell lysates were prepared and analyzed by Phospho STAT5 (Tyr693) Kit (Meso Scale Discovery) following manufacturer's protocol.
For calculation of the inhibition rate, the relative pSTAT5 signal of each well=pSTAT5 signal of each well−the average pSTAT5 signal of baseline.
The inhibition %=(the average pSTAT5 signal of INFα treatment wells−the relative of pSTAT5 signal in each compound containing well)/the average pSTAT5 signal of INFα treatment wells*100%
The curve was plotted as the inhibition % (y-axis) vs. compounds concentration (x-axis) and is fitted with log(inhibitor) vs. normalized response—Variable slope by GraphPad Prism7.0.

Chain of TYK2 JH1 (P29597 897-1176): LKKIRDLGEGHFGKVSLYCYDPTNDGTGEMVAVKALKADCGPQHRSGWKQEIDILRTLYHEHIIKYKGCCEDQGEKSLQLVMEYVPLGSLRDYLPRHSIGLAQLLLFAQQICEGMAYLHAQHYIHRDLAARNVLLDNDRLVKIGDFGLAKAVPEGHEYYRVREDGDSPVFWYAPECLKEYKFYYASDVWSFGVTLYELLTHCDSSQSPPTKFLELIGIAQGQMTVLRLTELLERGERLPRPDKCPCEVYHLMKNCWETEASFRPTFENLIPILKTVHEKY
Chain of JAK1 JH1 (P23458 875-1153): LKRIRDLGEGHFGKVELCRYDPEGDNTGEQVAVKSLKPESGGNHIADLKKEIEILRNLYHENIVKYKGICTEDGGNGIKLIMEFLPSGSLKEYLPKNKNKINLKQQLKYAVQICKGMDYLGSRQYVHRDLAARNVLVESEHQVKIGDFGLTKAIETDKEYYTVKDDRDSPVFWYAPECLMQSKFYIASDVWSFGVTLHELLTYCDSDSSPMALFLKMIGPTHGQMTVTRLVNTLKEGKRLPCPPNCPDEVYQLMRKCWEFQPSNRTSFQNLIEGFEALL
Chain of JAK2 JH1 (O60674 849-1124): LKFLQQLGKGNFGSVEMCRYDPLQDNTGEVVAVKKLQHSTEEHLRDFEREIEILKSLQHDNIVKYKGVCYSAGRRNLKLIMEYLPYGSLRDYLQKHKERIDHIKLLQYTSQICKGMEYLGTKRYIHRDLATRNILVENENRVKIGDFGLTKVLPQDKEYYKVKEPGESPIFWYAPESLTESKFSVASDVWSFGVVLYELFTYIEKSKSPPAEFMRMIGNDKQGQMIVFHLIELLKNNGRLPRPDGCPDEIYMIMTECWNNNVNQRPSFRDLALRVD
Chain of human TYK2 (JH2domain-pseudokinase) (P29597 556-888): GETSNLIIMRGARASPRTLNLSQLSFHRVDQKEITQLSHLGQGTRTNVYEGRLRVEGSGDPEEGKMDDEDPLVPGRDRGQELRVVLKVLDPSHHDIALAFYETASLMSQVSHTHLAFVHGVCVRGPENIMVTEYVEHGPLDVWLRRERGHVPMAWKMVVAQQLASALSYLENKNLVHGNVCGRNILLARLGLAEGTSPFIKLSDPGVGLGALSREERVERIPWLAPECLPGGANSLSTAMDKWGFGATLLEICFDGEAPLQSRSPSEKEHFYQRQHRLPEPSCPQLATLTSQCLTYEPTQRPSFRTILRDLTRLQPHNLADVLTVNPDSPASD
Chain of JAK1 JH2 (P23458 583-855): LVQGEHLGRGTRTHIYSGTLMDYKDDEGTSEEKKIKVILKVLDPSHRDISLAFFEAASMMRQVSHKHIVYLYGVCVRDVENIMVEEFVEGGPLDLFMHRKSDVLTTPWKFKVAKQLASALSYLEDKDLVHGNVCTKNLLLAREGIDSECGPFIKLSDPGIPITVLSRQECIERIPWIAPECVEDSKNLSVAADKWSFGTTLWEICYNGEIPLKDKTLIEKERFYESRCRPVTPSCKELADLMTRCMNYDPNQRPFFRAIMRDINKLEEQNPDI
Chain of JAK3 JH1 (P52333 822-1111): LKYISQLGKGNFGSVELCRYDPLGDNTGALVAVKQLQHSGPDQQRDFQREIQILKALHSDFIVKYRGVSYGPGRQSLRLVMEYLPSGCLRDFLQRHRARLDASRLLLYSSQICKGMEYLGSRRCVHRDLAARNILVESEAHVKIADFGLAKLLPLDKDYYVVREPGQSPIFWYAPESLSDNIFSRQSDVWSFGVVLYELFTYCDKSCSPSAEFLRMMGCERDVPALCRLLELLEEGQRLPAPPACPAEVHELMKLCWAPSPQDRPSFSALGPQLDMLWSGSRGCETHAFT
Chain of JAK2 JH2 (O60674 545-809): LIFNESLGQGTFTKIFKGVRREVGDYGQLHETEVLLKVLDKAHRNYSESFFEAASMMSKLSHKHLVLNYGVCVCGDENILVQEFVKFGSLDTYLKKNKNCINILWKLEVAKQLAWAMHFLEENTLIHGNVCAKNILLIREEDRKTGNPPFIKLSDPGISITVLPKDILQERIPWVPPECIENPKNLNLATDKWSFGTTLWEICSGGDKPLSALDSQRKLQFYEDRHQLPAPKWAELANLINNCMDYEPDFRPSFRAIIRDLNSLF

| Kd [1] | Kd (TYK2 JH1) | Kd (JAK3 JH1) | Kd (JAK2 JH2) | Kd (JAK2 JH1) | Kd (JAK1 JH2) | Kd (JAK1 JH1) | SMILES | IC50 (IFNa, PBMCs, p-STAT3) | IC50 [2] |
| --- | --- | --- | --- | --- | --- | --- | --- | --- | --- |
| < 10 nM | 1000 to 10000 nM | ≥ 30000 nM | 1000 to 10000 nM | ≥ 30000 nM | 10 to 1000 nM | ≥ 30000 nM | CNc1cc2nn3c(cnc13)C(=O)N[C@H](C)COCc1cc(c3c(c1)nnn3C)N2 [Compound 1] | < 50 nM | < 50 nM |
| < 10 nM | 1000 to 10000 nM | ≥ 30000 nM | 1000 to 10000 nM | ≥ 30000 nM | 10 to 1000 nM | ≥ 30000 nM | CNc1cc2nn3c(cnc13)C(=O)N[C@H](C)COCc1cc(c3nn(C)nc3c1)N2 [Compound 6] | < 50 nM | < 50 nM |
